Test results from US20170304228A1, “NEW INDICATION OF CINACALCET HCL PHARMACEUTICAL COMPOSITION FOR TREATING CANCER” (LAUNX BIOMEDICAL CO., LTD., priority 2014, published 2017).
Structures can show the parent of a compound that is named as a salt. Where two headings read alike, the source gives them in different places.

What was measured:
Type in all cases: cell-based
normal cells = test: Toxicity to normal cells
Protocol: (§1) Removing the original culture medium from 96-well plate. Then add 100 μl of commercially drug at a concentration of 10 μM per well. After 72 hours, add the diluted WST-1 reagent to the well with 100 μl/well, and the diluted WST-1 reagent was acquired from the dilution of 9:1 medium and WST-1 stock reagent. Finally, the total volume of each well was 200 μl/well. Culture the 96-well plate at 37° C. for 30 to 90 minutes. Detecting and calculate the survival rate of each cancer cells with an ELISA reader at OD450 nm. The lower viability of cancer cells represents better inhibition effect via the Cinacalcet HCl drug. Otherwise, the higher viability of cancer cells represents worse inhibition effect via the Cinacalcet HCl drug.
(§2) This inhibition test of Cinacalcet HCl on normal cells were using normal kidney cell line HEK293 (Table 16), normal pulmonary epithelial cell lines […] BEAS-2B (Table 17). The inhibitory tests of Cinacalcet HCl were performed 4 times for each cell lines and then the average value of the inhibitory tests was calculated The results were shown in Tables 16 and Tables 17.

[1] = Cell viability analysis (WST-1), normal pulmonary epithelial cell line BEAS-2B; settings: human, BEAS-2B cells (normal pulmonary epithelial cell line)
Text: Subculture the different types of cancer cells. The cancer cells includes lung cancer, gastric cancer, hepatic cancer, colon cancer, skin cancer, cervical cancer, prostate cancer, bladder cancer, breast cancer, leukemia, pancreatic cancer, ovarian cancer, tongue cancer, osteosarcoma, and renal cancer. The normal cells used in the control group included kidney cell (HEK293) and human bronchial epithelial cell line BEAS-2B (as shown in Table 1).
(§3) The cell numbers were counted and reseed as 2×10^6 in culture plate/flask. Then, the culture medium were added to a volume of 10 ml, and the cells were cultured for 2-3 days. Then, the cells were suspended for loading into 96-well plates. The number of cells was 3000 and the volume of the culture medium was 100 μl each well.
as §1, §2

AsPC-1 = test: Cell viability analysis (WST-1), AsPC-1; settings: Homo sapiens, read-out: survival rate (viability) of cells
Protocol: as §3, §1
This inhibition test of Cinacalcet HCl on gastrointestinal tract-related cancer cells were using gastric cancer cell lines AGS and MKN-45 (Table 9), hepatic cancer cell lines HepG2 and Hep3B (Table 10), colorectal cancer cell lines HCT116-wt and LoVo (Table 11), pancreatic cancer cell line AsPC-1 and BxPC-3(Table 12), tongue cancer cell line SAS (Table 13). The inhibitory tests of Cinacalcet HCl were performed 4 times for each cell lines and then the average value of the inhibitory tests was calculated.

bladder cancer cells = test: Summary of cell viability, bladder cancer cells; settings: 72 hours, read-out: Inhibitory effect
Protocol: as §3, §1
Cinacalcet HCl is having different inhibitory effect on different tumor cell type even in the same cancer. […] (FIG. 1)

C[C@@H](NCCCc1cccc(C(F)(F)F)c1)c1cccc2ccccc12 [Cinacalcet HCl, Cinacalcet hydrochloride]
toxicity to normal cells (normal cells): no toxicity or had little toxicity
viability at 72 h, 10 µM ([1]; average of tests, read-out: survival rate (viability) of cells): 76.1%
viability at 72 h, 10 µM ([1]; summary, normal pulmonary epithelial cell line, read-out: Inhibitory effect): 76.1%
viability at 72 h, 10 µM ([1]; test 0510-10 min, read-out: survival rate (viability) of cells): 70.5%
viability at 72 h, 10 µM ([1]; test 0512-10 min, read-out: survival rate (viability) of cells): 72.9%
viability at 72 h, 10 µM ([1]; test 0515-10 min, read-out: survival rate (viability) of cells): 72.2%
viability at 72 h, 10 µM ([1]; test 0517-10 min, read-out: survival rate (viability) of cells): 89%
viability at 10 µM (AsPC-1; ASPC1, 10 μM, 72 hours, test 1-4-30 min): 71.9%
viability at 10 µM (AsPC-1; ASPC1, 10 μM, 72 hours, test 1-7-3-30 min): 61.6%
viability at 10 µM (AsPC-1; ASPC1, 10 μM, 72 hours, test 1-7-4-30 min): 81.7%
viability at 10 µM (AsPC-1; ASPC1, 10 μM, 72 hours, test 1-7-7-30 min): 60.4%
viability at 10 µM (AsPC-1; ASPC1, 72 h, 10 μM, Average of tests): 68.9%
viability at 10 µM (bladder cancer cells): 90.4%
